pIC50: −log10 of the molar value.
Tested on: 282377-053-R-J1-PDC complex spheroid viability
Assay: Anticancer human tumor 282377-053-R-J1-PDC patient-derived colon adenocarcinoma cell line growth inhibition [POLQ]
Details: for pIC50: curve of first compound; for viability, T/C: stronger effect = lower value
Procedure, shortened: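 Growth inhibition in 3D: complex spheroids (tumor PDC, HUVEC, MSC) treated with POLQ inhibitor combinations; where Cmax unknown, highest tested concentration 10 microM, except SN-38 at 1 microM.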

[1] = second compound 0.0316 µM, first compound 0.0316 µM
[2] = second compound 0.0316 µM, first compound 0.1 µM
[3] = second compound 0.0316 µM, first compound 0.316 µM
[4] = second compound 0.0316 µM, first compound 1 µM
[5] = second compound 0.0316 µM, first compound 3.16 µM
[6] = second compound 0.0316 µM, first compound 10 µM
[7] = second compound 0.1 µM, first compound 0.0316 µM
[8] = second compound 0.1 µM, first compound 0.1 µM
[9] = second compound 0.1 µM, first compound 0.316 µM
[10] = second compound 0.1 µM, first compound 1 µM
[11] = second compound 0.1 µM, first compound 3.16 µM
[12] = second compound 0.1 µM, first compound 10 µM
[13] = second compound 0.316 µM, first compound 0.0316 µM
[14] = second compound 0.316 µM, first compound 0.1 µM
[15] = second compound 0.316 µM, first compound 0.316 µM
[16] = second compound 0.316 µM, first compound 1 µM
[17] = second compound 0.316 µM, first compound 3.16 µM
[18] = second compound 0.316 µM, first compound 10 µM
[19] = second compound 1 µM, first compound 0.0316 µM
[20] = second compound 1 µM, first compound 0.1 µM
[21] = second compound 1 µM, first compound 0.316 µM
[22] = second compound 1 µM, first compound 1 µM
[23] = second compound 1 µM, first compound 3.16 µM
[24] = second compound 1 µM, first compound 10 µM
[25] = second compound 3.16 µM, first compound 0.0316 µM
[26] = second compound 3.16 µM, first compound 0.1 µM
[27] = second compound 3.16 µM, first compound 0.316 µM
[28] = second compound 3.16 µM, first compound 1 µM
[29] = second compound 3.16 µM, first compound 3.16 µM
[30] = second compound 3.16 µM, first compound 10 µM
[31] = second compound 10 µM, first compound 0.0316 µM
[32] = second compound 10 µM, first compound 0.1 µM
[33] = second compound 10 µM, first compound 0.316 µM
[34] = second compound 10 µM, first compound 1 µM
[35] = second compound 10 µM, first compound 3.16 µM
[36] = second compound 10 µM, first compound 10 µM
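Also: spheroids exposed to compounds for seven days.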
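For viability, T/C in this document: 100% = DMSO vehicle control viability.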

COc1cc(C2c3cc4c(cc3C(OC3OC5COC(C)OC5C(O)C3O)C3COC(=O)C23)OCO4)cc(OC)c1O (stereo unspecified) + Cc1cccc(N(C)C(=O)C2C(O)CCN2c2nc(C)cc(C(F)(F)F)c2C#N)c1
pIC50 (second compound 0.0316 µM): < 5.00
pIC50 (second compound 0.1 µM): < 5.00
pIC50 (second compound 0.316 µM): < 5.00
pIC50 (second compound 1 µM): < 5.00
pIC50 (second compound 3.16 µM): < 5.00
pIC50 (second compound 10 µM): 5.12
viability, T/C [1]: 139%
viability, T/C [2]: 104%
viability, T/C [3]: 128%
viability, T/C [4]: 109%
viability, T/C [5]: 84.8%
viability, T/C [6]: 61.4%
viability, T/C [7]: 112%
viability, T/C [8]: 105%
viability, T/C [9]: 123%
viability, T/C [10]: 88.7%
viability, T/C [11]: 89.1%
viability, T/C [12]: 59.1%
viability, T/C [13]: 108%
viability, T/C [14]: 98.2%
viability, T/C [15]: 119%
viability, T/C [16]: 116%
viability, T/C [17]: 91%
viability, T/C [18]: 64.2%
viability, T/C [19]: 107%
viability, T/C [20]: 99%
viability, T/C [21]: 123%
viability, T/C [22]: 98.1%
viability, T/C [23]: 78.7%
viability, T/C [24]: 56.9%
viability, T/C [25]: 103%
viability, T/C [26]: 102%
viability, T/C [27]: 96.2%
viability, T/C [28]: 90.1%
viability, T/C [29]: 86.2%
viability, T/C [30]: 53.9%
viability, T/C [31]: 103%
viability, T/C [32]: 100%
viability, T/C [33]: 96.5%
viability, T/C [34]: 78.2%
viability, T/C [35]: 62.1%
viability, T/C [36]: 46%

COc1cccc2c1C(=O)c1c(O)c3c(c(O)c1C2=O)CC(O)(C(=O)CO)CC3OC1CC(N)C(O)C(C)O1 (stereo unspecified) + Cc1cccc(N(C)C(=O)C2C(O)CCN2c2nc(C)cc(C(F)(F)F)c2C#N)c1
pIC50 (second compound 0.0316 µM): 6.32
pIC50 (second compound 0.1 µM): 6.25
pIC50 (second compound 0.316 µM): 6.34
pIC50 (second compound 1 µM): 6.43
pIC50 (second compound 3.16 µM): 6.31
pIC50 (second compound 10 µM): 6.46
viability, T/C [1]: 130%
viability, T/C [2]: 105%
viability, T/C [3]: 63.7%
viability, T/C [4]: 27.6%
viability, T/C [5]: 1.27%
viability, T/C [6]: 3.44%
viability, T/C [7]: 108%
viability, T/C [8]: 98.5%
viability, T/C [9]: 79.6%
viability, T/C [10]: 20.7%
viability, T/C [11]: 1.4%
viability, T/C [12]: 2.79%
viability, T/C [13]: 104%
viability, T/C [14]: 100%
viability, T/C [15]: 66.1%
viability, T/C [16]: 16.1%
viability, T/C [17]: 0.98%
viability, T/C [18]: 3.12%
viability, T/C [19]: 113%
viability, T/C [20]: 101%
viability, T/C [21]: 47%
viability, T/C [22]: 29.9%
viability, T/C [23]: 2.19%
viability, T/C [24]: 2.83%
viability, T/C [25]: 115%
viability, T/C [26]: 91.7%
viability, T/C [27]: 73.3%
viability, T/C [28]: 15.2%
viability, T/C [29]: 1%
viability, T/C [30]: 2.98%
viability, T/C [31]: 95%
viability, T/C [32]: 89.8%
viability, T/C [33]: 54%
viability, T/C [34]: 9.01%
viability, T/C [35]: 0.71%
viability, T/C [36]: 2.73%

Nc1ccn(C2OC(CO)C(O)C2(F)F)c(=O)n1 (stereo unspecified) + Cc1cccc(N(C)C(=O)C2C(O)CCN2c2nc(C)cc(C(F)(F)F)c2C#N)c1
pIC50 (second compound 0.0316 µM): 7.01
pIC50 (second compound 0.1 µM): 7.02
pIC50 (second compound 0.316 µM): 7.02
pIC50 (second compound 1 µM): 7.00
pIC50 (second compound 3.16 µM): 6.94
pIC50 (second compound 10 µM): 6.95
viability, T/C [1]: 84%
viability, T/C [2]: 45.3%
viability, T/C [3]: 35.2%
viability, T/C [4]: 23.9%
viability, T/C [5]: 17.8%
viability, T/C [6]: 13.6%
viability, T/C [7]: 101%
viability, T/C [8]: 46.8%
viability, T/C [9]: 30.3%
viability, T/C [10]: 23.1%
viability, T/C [11]: 23.2%
viability, T/C [12]: 16%
viability, T/C [13]: 81.7%
viability, T/C [14]: 47%
viability, T/C [15]: 31.9%
viability, T/C [16]: 25.9%
viability, T/C [17]: 18.2%
viability, T/C [18]: 16.6%
viability, T/C [19]: 84.5%
viability, T/C [20]: 45.5%
viability, T/C [21]: 32.7%
viability, T/C [22]: 30.4%
viability, T/C [23]: 21.7%
viability, T/C [24]: 10.5%
viability, T/C [25]: 92.5%
viability, T/C [26]: 50.9%
viability, T/C [27]: 31.8%
viability, T/C [28]: 30.2%
viability, T/C [29]: 24.6%
viability, T/C [30]: 13.9%
viability, T/C [31]: 74.9%
viability, T/C [32]: 48.6%
viability, T/C [33]: 38.2%
viability, T/C [34]: 25%
viability, T/C [35]: 20.8%
viability, T/C [36]: 12.3%
